Assay results from US5770420A, “Methods and products for the synthesis of oligosaccharide structures on glycoproteins, glycolipids, or as free molecules, and for the isolation of cloned genetic sequences that determine these structures” (The Regents of the University of Michigan, priority 1995, dated 1998).
Like-named read-outs stand apart in the source and are kept apart here. Values belong to the compound of their own block, whether it stands above or below them.

Legend:
[1] = molecular target: human Fuc-TVI (α(1,3)fucosyltransferase), wild type, SEQ ID NO:14 (Homo sapiens, UniProt P51993); conditions: read-out: Apparent Km LNB-I; acceptor 0.25-167 mM, 3 mM GDP-[14C]fucose (so in the source), pH 6.2, 37° C.
Method: (§1) Extracts for α(1,3)Fuc-T assays were prepared by harvesting COS-7 cells 72 hours after transfection, and solubilizing the cell pellets in 1% Triton X-100 (Kukowska-Latallo, J. F., et al (1990) Genes Devel., vol. 4, 1288-1303; Lowe, J. B., et al (1991) J. Biol. Chem., vol. 266, 17467-17477; Weston, B. W., et al (1992) J. Biol. Chem., vol. 267, 4152-4160; Weston, B. W., et al (1992) J. Biol. Chem. vol. 267, 24575-24584). Cell extract protein contents were determined with a micro BCA protein assay reagent (Pierce). Fucosyltransferase assays were performed in a final volume of 20 μl, and contained 25 mM sodium cacodylate (pH 6.2), 5 mM ATP, 10 mM L-fucose, 20 mM MnCl2 and 3 mM GDP-[^14 C]fucose. Cell extract protein concentration was varied to approximate linear reaction rate conditions (net [14C]-fucose incorporation rate of a less than twenty percent of total input GDP-[^14 C]fucose radioactivity). […] Reactions were incubated at 37° C. for one hour and were terminated by the addition of 20 μl ethanol, followed by dilution with […] water. The total radioactivity in each reaction was determined by subjecting an aliquot to scintillation counting. To assess the amount of radioactive fucose incorporated into product, an additional aliquot was applied to a Dowex 1×2-400 column in the formate form (Sasaki, K., et al (1994) J. Biol. Chem., vol. 269, 14730-14737; Natsuka, S., et al (1994) J. Biol. Chem., vol. 269, 16789-16794; Macher, B. A., et al (1991) Glycobiology, vol. 1, 577-584; Natsuka, S., and Lowe, J. B. (1994) Curr. Opin. Struct. Biol., vol. 4, 683-691). The flow through fraction plus an additional 2 ml of a water column "wash" was collected, pooled and subjected to scintillation counting. Control assays containing no added acceptor substrate were also completed in parallel.

[2] = test system: chimera Fuc-TC4: Fuc-TVI (1-159) plus Fuc-TIII (161-361); conditions: acceptor 0.25-167 mM, 3 mM GDP-[14C]fucose (so in the source), pH 6.2, 37° C.
Method: as §1

[3] = test system: chimera Fuc-TC2: Fuc-TIII (1-160) plus Fuc-TVI (160-359); conditions: acceptor 0.25-167 mM, 3 mM GDP-[14C]fucose (so in the source), pH 6.2, 37° C.
Method: as §1

[4] = test system: chimera Fuc-TC19: Fuc-TIII (1-99) plus Fuc-TVI (99-159) plus Fuc-TIII (161-361); conditions: acceptor 0.25-167 mM, 3 mM GDP-[14C]fucose (so in the source), pH 6.2, 37° C.
Method: as §1

[5] = test system: chimera Fuc-TC18: Fuc-TVI (1-85) plus Fuc-TIII (87-160) plus Fuc-TVI (160-359); conditions: acceptor 0.25-167 mM, 3 mM GDP-[14C]fucose (so in the source), pH 6.2, 37° C.
Method: as §1

[6] = test system: chimera Fuc-TC20: Fuc-TVI (1-98) plus Fuc-TIII (100-160) plus Fuc-TVI (160-359); conditions: acceptor 0.25-167 mM, 3 mM GDP-[14C]fucose (so in the source), pH 6.2, 37° C.
Method: as §1

IgG-Sepharose [7] = assay: batch binding of conditioned medium to IgG-Sepharose, enzyme activity assayed
IgG-Sepharose [8] = assay: batch binding of conditioned medium to IgG-Sepharose, washed matrix assayed for enzyme activity

Km [1]: > 50 mM | Km ([2]; read-out: Apparent Km LNB-I): > 50 mM | Km ([3]; read-out: Apparent Km LNB-I): > 50 mM | Km ([5]; read-out: Apparent Km LNB-I): > 50 mM
Compound: CC(=O)N[C@H]1C(O)O[C@H](CO)[C@@H](O)[C@@H]1O[C@@H]1O[C@H](CO)[C@H](O)[C@H](O)[C@H]1O (stereo partly shown) [LNB-I, lacto-N-biose I]
Km ([4]; read-out: Apparent Km LNB-I): > 50 mM | Km ([6]; read-out: Apparent Km LNB-I): > 50 mM

Km ([2]; read-out: Apparent Km LacNAc): 5.8 mM | Km ([3]; read-out: Apparent Km LacNAc): > 50 mM | Km ([5]; read-out: Apparent Km LacNAc): > 50 mM
Compound: CC(=O)N[C@H]1C(O)O[C@H](CO)[C@@H](O[C@@H]2O[C@H](CO)[C@H](O)[C@H](O)[C@H]2O)[C@@H]1O (stereo partly shown) [LacNAc, N-acetyllactosamine]
Km ([4]; read-out: Apparent Km LacNAc): 1.1 mM | Km ([6]; read-out: Apparent Km LacNAc): > 50 mM

percent of released activity retained (IgG-Sepharose [7]): 100%
Compound: protein A-Fuc-TIV fusion protein encoded by pPROTA-α(Fuc-TIV)c (from UniProt P02976) (enzyme)

percent of released activity retained (IgG-Sepharose [7]): 100%
Compound: protein A-Fuc-TV fusion protein encoded by pPROTA-Fuc-TVc (from UniProt P02976) (enzyme)

percent of activity recovered from the matrix after exhaustive washing (IgG-Sepharose [8]): 24% | percent of released activity retained (IgG-Sepharose [7]): 100%
Compound: protein A-fucosyltransferase fusion protein encoded by pPROTA-α(1,3/1,4)FTc (from UniProt P02976) (enzyme)

percent of released activity retained (IgG-Sepharose [7]): 100%
Compound: protein A-α(1,2)fucosyltransferase fusion protein encoded by pPROTA-α(1,2)FTc (from UniProt P02976) (enzyme)
